Source: patent publication US20220143003A1, “COMPOSITIONS AND METHODS TO TREAT NON-ALCOHOLIC FATTY LIVER DISEASES (NAFLD)” (Coherus Biosciences, Inc., priority 2018, published 2022)

Test system: DIO-NASH mice
Experiment: Plasma urea at termination
Assay type: in vivo, male C57BL/6JRj mice
Settings: termination; group mean; CHS-131 High dose (alone or combined)
Method: For plasma biochemistry, tail blood was drawn directly through the capillary of a Microvette/Vacuette of the right dimension and anticoagulant and mixed by inversion 5 times. Blood was placed at 4° C. until centrifugation at 3000×g for 10 minutes at 4° C. The plasma supernatants were transferred to new tubes and immediately frozen on dry ice and stored at −80° C. until analysis.
Mouse insulin was measured in single determinations using the MSD platform (Meso Scale Diagnostics).
Plasma urea at termination (mmol/L). Values expressed as mean of n=12-14+SEM.

- Plasma urea at termination: 7.86 mmol/L
Compound: CCCCCCCCCCCCCCCC(=O)N[C@@H](CCC(=O)NCCCC[C@H](NC(=O)[C@H](C)NC(=O)[C@H](C)NC(=O)[C@H](CCC(N)=O)NC(=O)CNC(=O)[C@H](CCC(=O)O)NC(=O)[C@H](CC(C)C)NC(=O)[C@H](Cc1ccc(O)cc1)NC(=O)[C@H](CO)NC(=O)[C@H](CO)NC(=O)[C@@H](NC(=O)[C@H](CC(=O)O)NC(=O)[C@H](CO)NC(=O)[C@@H](NC(=O)[C@H](Cc1ccccc1)NC(=O)[C@@H](NC(=O)CNC(=O)[C@H](CCC(=O)O)NC(=O)[C@H](C)NC(=O)[C@@H](N)Cc1cnc[nH]1)[C@@H](C)O)[C@@H](C)O)C(C)C)C(=O)N[C@@H](CCC(=O)O)C(=O)N[C@@H](Cc1ccccc1)C(=O)N[C@H](C(=O)N[C@@H](C)C(=O)N[C@@H](Cc1c[nH]c2ccccc12)C(=O)N[C@@H](CC(C)C)C(=O)N[C@H](C(=O)N[C@@H](CCCNC(=N)N)C(=O)NCC(=O)N[C@@H](CCCNC(=N)N)C(=O)NCC(=O)O)C(C)C)[C@@H](C)CC)C(=O)O [Liraglutide, reference compound]
